Measurements from patent US9962395B2, “Compositions and methods for maintaining cognitive function” (The Regents of the University of California, priority 2014, dated 2018).
“Also recorded” adds a separate entry of the source.

What was measured:
Assay type in all cases: in vivo
[1] = tested on: ovariectomized female C57BL/6 mice; experiment: Morris water maze (spatial memory) in ovariectomized mice
Description: (§1) FIG. 5. Peripheral estrogens improve performance on the Morris water maze via ERP expressed on neurons. Healthy female C57BL/6 were tested for cognitive performance (spatial memory) using the Morris water maze, whereby mice learn to spend more time in a target quadrant (TQ) as compared to three other quadrants (OQ). […] (Bottom graph) To determine (a) whether ER beta is required for proper learning and, more specifically, (b) whether ER beta expression in neurons is required for learning, mice were generated that had ER beta conditionally knocked out using CreLox technology, with Cre driving the knock out in neurons via the neuron-specific enolase (NSE) promoter. […] (***p≤0.001, ANOVA-Sidak's posttest). […] The dashed line on the graphs indicates the time expected to be spent in a quadrant by random chance in the absence of learning (25%).
Ovariectomized mice (OVX-Placebo) display worse performance in the Morris water maze than control mice (Sham-Placebo) (FIG. 5, top panel). The administration of an estriol improves performance in ovariectomized mice (OVX-Estriol) (FIG. 5, top panel).

NSE-Cre:ERβ^fl/fl mice = experiment: Morris water maze in mice with neuronal conditional knockout of ER beta; conditions: OVX estriol-treated NSE-Cre:ERβ^fl/fl mice, n=7
Description: as §1
Thus, estrogen receptor β ligands can likely protect against neuronal defects and disability during neurodegenerative processes. This is consistent with the observation that estriol improved performance since it is a known that estriol is an agonist for various estrogen receptors including estrogen receptor β.

[2] = tested on: post-menopausal female patients; experiment: Randomized, double-blind, placebo-controlled human clinical trial of estriol and norethindrone in menopause; conditions: oral estriol 2, 4, 6 or 8 mg/day, 36-month treatment, women
Description: This example describes a randomized, double-blind, placebo-controlled human clinical trial for the treatment of menopause estriol and norethindrone.
Women who are taking hormone replacement therapy are excluded from the trial.
Patients are randomized to oral estriol (2 mg/day, 4 mg/day, 6 mg/day, or 8 mg/day) or to placebo for a 36-month treatment duration. Gynecologists examine the patients before, during, and after the study. Each patient is examined at three- to six-month intervals during the trial. Patients also undergo mammograms before and after the study. In addition, at baseline, 3 months, 6 months, 12 months, 18 months, 24, months, 30 months, and 36 months, the investigators measure participants' estriol levels, and assess cognitive abilities.
A total of 100 patients receive estriol, and 100 patients receive placebo. Baseline characteristics are similar in both patient groups. Participants' mean age at entry is approximately 52 years. […] To ensure breast and uterus safety, every three months the patients take norethindrone 0.7 mg once a day for 14 days.

[3] = tested on: hippocampal CA1 of ovariectomized (OVX) mice; experiment: Hippocampal slice electrophysiology: long term potentiation (LTP) in CA1 after high-frequency stimulation
Description: FIGS. 1A and 1B. Estriol partially recovers long term potentiation (LTP) in the hippocampal CA1 of ovariectomized (OVX) mice. (A) LTP induced by 2×100 Hz HFS in sham-placebo treated mice (open squares, n=4) is reduced in OVX-placebo treated mice (gray circles, n=4). Estriol-treated OVX mice show improved synaptic strength (black circles, n=4). Representative traces are superimposed average fEPSPs recorded at baseline and during final 15 minutes after HFS. Estriol (5 mg) or placebo was administered as subcutaneous pellets. Calibration: 2 mV, 5 ms. (B) Summary showing fEPSP slopes during baseline (Pre) and in final 15 minutes after HFS (Post). […] Statistics RM-ANOVA, Tukey's multiple comparison test, ****p≤0.0001.
Electrophysiology to assess excitatory synaptic transmission is an accepted biomarker for cognitive function in mice, which specifically tests long term potentiation (LTP) during stimulation of the region of the brain responsible for memory, the CA1 region of the hippocampus. Hippocampal electrophysiology was examined in slices from sham surgical mice treated with placebo (SP), ovariectomized mice treated with placebo (OP), and ovariectomized mice treated with estriol (OE). […] LTP was reduced in OP mice as compared to SP mice, consistent with the known deleterious effects upon loss of peripheral estrogen on neurotransmission (FIG. 1).

PSD-95 = PSD-95 synaptic protein expression in dorsal hippocampus (western blot, immunofluorescence); conditions: OVX mice treated with estriol, n=2
Text: FIG. 4 consists of two panels, labeled panels (A) and (B). Estriol partially recovers synaptic levels of PSD-95 in the dorsal hippocampus following OVX. Panel A: levels of PSD-95 are decreased in the dorsal hippocampus in OVX-Placebo mice (n=2) compared to Sham-Placebo mice (n=2). […] Scale bar=20 μm, 40× objective.
Expression of PSD-95 in the CA1 stratum radiatum was shown by both immunofluorescence and by western blot (FIG. 4)

Estriol levels in serum [2]: in early pregnancy range
Compound: C[C@]12CC[C@@H]3c4ccc(O)cc4CC[C@H]3[C@@H]1C[C@@H](O)[C@@H]2O [estriol]
% duration in target quadrant (TQ) versus other quadrants (OQ), learning ([1]; OVX mice, 20 days of 5 mg, 90 day release estriol implants, n=7, p≤0.01): significant preference for the TQ over OQ; also recorded: ability to learn may be restored
average latency to platform during acquisition training ([1]; Sham-Placebo vs OVX-Placebo vs OVX-Estriol, 3 trials/mouse/day, RM-ANOVA p>0.05): no difference was observed
% duration in TQ versus OQ, estriol rescue of learning in ER beta neuronal knockout (NSE-Cre:ERβ^fl/fl mice): estrogen-mediated improvement is lost; also recorded: the ability of estriol to rescue learning is mediated by ER beta expression in neurons
LTP versus OVX-placebo mice (in words) ([3]; OVX mice treated with estriol for 9 weeks, RM-ANOVA, Tukey, p≤0.0001): significantly improved over OP mice; also recorded: significant improvement in LTP deficit from ovariectomy
fEPSP slope in final 15 minutes after HFS (Post), Mean±SE post-HFS ([3]; OVX mice, estriol 5 mg subcutaneous pellet, 2×100 Hz HFS, n=4, sham-placebo 159.6±0.2, OVX-placebo 141.6±0.5): 150.4±0.4
PSD-95 levels in dorsal hippocampus / CA1 stratum radiatum versus OVX-placebo (PSD-95): increased expression of PSD-95; also recorded: elevated PSD-95 levels
